Measurements as given in patent publication EP0482717A1, “Use of a benzo[b]thiophene-2-carboximidamide derivative against heart failure” (Akzo Nobel N.V., priority 1990, dated 1992).
Marks after values point to notes of the source that are not given here.

How the values were obtained:
Format in all cases: in vivo
[1] = system: anaesthetized cat; test: Left ventricular contractility (LV dP/dt) after oral administration (by gavage) to anaesthetized cats; conditions: for potency at increasing left ventricular contractility (LV dP/dt): administered orally (by gavage), compounds I and II compared, species not given
From the text: However, it also appeared that this improvement with regard to compound II could be fully attributed to its reduced bioavailability. […] Poor activity was also observed after oral administration (by gavage) of the compound to anaesthetized cats. Substitution with C1 at the 4- position in the benzothiophene nucleus, thus reduces oral activity.
(§1) The pharmacological results after oral administration of compounds I (this invention) vs. compounds II and III (EP 158,380), are depicted in table I (cat) and table II (dog).

[2] = system: conscious dog; test: Left ventricular contractility (LV dP/dt), emesis and restlessness after oral administration to conscious dogs
From the text: (§2) Related compounds with positive inotropic activity have been disclosed in European patent 158,380.
as §1

[3] = Plasma drug levels in multiple dose studies in rats; conditions: compared with an equivalent dose of compound II
[4] = system: volunteers; test: Clinical Phase I studies, oral administration to volunteers
From the text: as §2

[5] = oral administration, conscious dog, dose 25 mg/kg

Row | SMILES | activity after oral administration (by gavage) ([1]; anaesthetized cats) | increases of left ventricular contractility (LV dP/dt) ([2]; conscious dogs, oral administration, doses up to and including 50 mg/kg) | emesis and vomiting ([2]; dose not stated) | restlessness ([2]; dose not stated) | emesis [2, 5] | increase in LV dP/dt (%) [2, 5] | potency at increasing left ventricular contractility (LV dP/dt) [1] | emetic effect compared with compound II ([2]; oral administration to conscious dogs) | restlessness [2, 5] | increases in LV dP/dt ([2]; oral dose 25 mg/kg) | vomiting ([2]; oral dose 25 mg/kg) | plasma drug levels [3] | doses at which the compound consistently produces vomiting and restlessness ([2]; administered orally to conscious restrained dogs) | nausea and vomiting [4]
1 | COc1cc2sc(C(N)=NO)cc2c(Cl)c1OC [III] | Poor activity | Only modest increases | did not cause emesis and vomiting | restlessness was still observed | 0 | 10% | – | – | – | – | – | – | – | –
2 | COc1cc2sc(C(=N)NO)cc2c(F)c1OC [Compound I, 4-fluoro-N-hydroxy-5,6-dimethoxybenzo[b]thiophene-2-carboximidamide] | – | – | – | – | 0 | 45% | approximately equipotent | less emetic than compound II | 0 | marked increases | no significant vomiting | higher | – | –
3 | COc1cc2cc(C(N)=NO)sc2cc1OC [II] | – | – | – | – | – | 50-100* % | approximately equipotent | – | – | – | – | – | > 10 mg/kg | nausea and vomiting were also observed
